Assay results as given in PubChem BioAssay (NCI).
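All cell lines were grown in 96-well plates and treated with compound for 48 hours. Here, GI50 denotes the concentration required for 50% inhibition of growth. The concentration for full growth arrest is given as TGI.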

Assays:
Assay in all cases: NCI anticancer screen, dose series, 48 h
[1] = tested on: M14 melanoma
[2] = tested on: SK-MEL-5 melanoma
[3] = tested on: SF-268 CNS
[4] = tested on: K-562 leukemia
[5] = tested on: NCI-H522 lung
[6] = tested on: MALME-3M melanoma
[7] = tested on: SF-539 CNS
[8] = tested on: OVCAR-8 ovarian
[9] = tested on: RXF 393 renal
[10] = tested on: DU-145 prostate
[11] = tested on: MDA-MB-231 breast
[12] = tested on: OVCAR-3 ovarian
[13] = tested on: SNB-75 CNS
[14] = tested on: OVCAR-5 ovarian
[15] = tested on: NCI/ADR-RES ovarian
[16] = tested on: HOP-62 NSCLC
[17] = tested on: U251 CNS
[18] = tested on: SK-MEL-2 melanoma
[19] = tested on: SW-620 colon
[20] = tested on: SNB-19 CNS
[21] = tested on: NCI-H23 lung
[22] = tested on: NCI-H226 lung
[23] = tested on: UACC-62 melanoma
[24] = tested on: HOP-92 NSCLC
[25] = tested on: HCC-2998 colon
[26] = tested on: SK-MEL-28 melanoma
[27] = tested on: SF-295 CNS
[28] = tested on: IGROV1 ovarian
[29] = tested on: SK-OV-3 ovarian
[30] = tested on: COLO 205 colon
[31] = tested on: LOX IMVI melanoma
[32] = tested on: BT-549 breast
[33] = tested on: HL-60(TB) leukemia
[34] = tested on: ACHN renal
[35] = tested on: OVCAR-4 ovarian
[36] = tested on: A549 NSCLC
[37] = tested on: HCT-116 colon
[38] = tested on: RPMI-8226 leukemia
[39] = tested on: HT29 colon
[40] = tested on: CAKI-1 renal
[41] = tested on: TK-10 renal
[42] = tested on: 786-0 renal
[43] = tested on: HCT-15 colon
[44] = tested on: NCI-H460 lung
[45] = tested on: MDA-MB-435
[46] = tested on: A498 renal
[47] = tested on: CCRF-CEM leukemia
[48] = tested on: PC-3 prostate
[49] = tested on: KM12 colon
[50] = tested on: HS 578T breast
[51] = tested on: UACC-257 melanoma
[52] = tested on: UO-31 renal
[53] = tested on: EKVX NSCLC
[54] = tested on: MOLT-4 leukemia
[55] = tested on: SN12C renal

CC(C)Cc1ccc(C(C)C(=O)NCc2ccc(Cn3c(=O)sn(CCCCl)c3=O)cc2)cc1 (stereo not given)
GI50 [1]: 0.621 µM | TGI [1]: 2.2 µM | GI50 [2]: 1.63 µM | TGI [2]: 2.99 µM | GI50 [3]: 1.6 µM | TGI [3]: 3.02 µM | GI50 [4]: 0.412 µM | TGI [4]: > 100 µM | GI50 [5]: 0.458 µM | TGI [5]: 2.01 µM | GI50 [6]: 1.56 µM | TGI [6]: 2.97 µM | GI50 [7]: 1.48 µM | TGI [7]: 2.81 µM | GI50 [8]: 1.21 µM | TGI [8]: 2.87 µM | GI50 [9]: 1.17 µM | TGI [9]: 2.41 µM | GI50 [10]: 1.46 µM | TGI [10]: 2.82 µM | GI50 [11]: 1.37 µM | TGI [11]: 2.72 µM | GI50 [12]: 0.738 µM | TGI [12]: 2.03 µM | GI50 [13]: 0.445 µM | TGI [13]: 2.04 µM | GI50 [14]: 1.75 µM | TGI [14]: 3.29 µM | GI50 [15]: 2.11 µM | TGI [15]: 8.25 µM | GI50 [16]: 1.28 µM | TGI [16]: 2.73 µM | GI50 [17]: 1.63 µM | TGI [17]: 3.01 µM | GI50 [18]: 1.43 µM | TGI [18]: 3 µM | GI50 [19]: 0.497 µM | TGI [19]: 1.9 µM | GI50 [20]: 1.71 µM | TGI [20]: 3.3 µM | GI50 [21]: 1.59 µM | TGI [21]: 3.26 µM | GI50 [22]: 1.43 µM | TGI [22]: 3.13 µM | GI50 [23]: 1.42 µM | TGI [23]: 2.76 µM | GI50 [24]: 0.814 µM | TGI [24]: 2.26 µM | GI50 [25]: 1.85 µM | TGI [25]: 3.37 µM | GI50 [26]: 1.65 µM | TGI [26]: 3.02 µM | GI50 [27]: 4.9 µM | TGI [27]: 17.5 µM | GI50 [28]: 0.744 µM | TGI [28]: 2.21 µM | GI50 [29]: 6.13 µM | TGI [29]: 20 µM | GI50 [30]: 1.12 µM | TGI [30]: 2.76 µM | GI50 [31]: 1.18 µM | TGI [31]: 2.52 µM | GI50 [32]: 1.09 µM | TGI [32]: 2.7 µM | GI50 [33]: 3.82 µM | TGI [33]: > 100 µM | GI50 [34]: 0.746 µM | TGI [34]: 2.02 µM | GI50 [35]: 1.53 µM | TGI [35]: 3.02 µM | GI50 [36]: 1.79 µM | TGI [36]: 3.72 µM | GI50 [37]: 0.235 µM | TGI [37]: 0.783 µM | GI50 [38]: 0.375 µM | TGI [38]: 6.18 µM | GI50 [39]: 1.6 µM | TGI [39]: 2.94 µM | GI50 [40]: 0.619 µM | TGI [40]: 2.08 µM | GI50 [41]: 0.493 µM | TGI [41]: 1.85 µM | GI50 [42]: 0.551 µM | TGI [42]: 1.98 µM | GI50 [43]: 0.511 µM | TGI [43]: 2.05 µM | GI50 [44]: 1.65 µM | TGI [44]: 3.34 µM | GI50 [45]: 1.14 µM | TGI [45]: 2.44 µM | GI50 [46]: 1.26 µM | TGI [46]: 2.87 µM | GI50 [47]: 0.361 µM | TGI [47]: > 100 µM | GI50 [48]: 0.677 µM | TGI [48]: 2.27 µM | GI50 [49]: 1.76 µM | TGI [49]: 3.45 µM | GI50 [50]: 1.82 µM | TGI [50]: 4.9 µM | GI50 [51]: 1.56 µM | TGI [51]: 2.98 µM | GI50 [52]: 0.672 µM | TGI [52]: 2.08 µM | GI50 [53]: 1.47 µM | TGI [53]: 2.78 µM | GI50 [54]: 0.962 µM | TGI [54]: > 100 µM | GI50 [55]: 1.34 µM | TGI [55]: 2.65 µM
